Test [1] has as its system grape vine (Vitis vinifer ssp. 'Sativa'). The experiment in a line: Greenhouse shoot elongation, grape vine. The format is in vivo. Particulars: grape vine main shoot elongation, 17 days after start; DMPSA 1% of NH4-N, VitoVin 12481 g/ha. Here is the method: (§1) Plants were generally grown under standard green house conditions (20° C. and 60% humidity) using standard greenhouse soil (mixture of peat, loam and sand). Therefore, 0.4 g of ryegrass seeds (Lolium perennes ‘Chagall’), 1 soybean seed (Glycine max ‘Sultana’) or 1 grape vine live stack (Vitis vinifer ssp. ‘Sativa’) were grown per pot (8.4 cm for ryegrass, soybean; 13 cm for grape vine) in a completely randomized set-up. Following a growth period of ten days (ryegrass), 14 days (soybean) or approx. 21 days, until the main shoot reached a length of 20 cm (grape vine), plants were designated for experimental usage.
For experiments using grape vine, elongation of the main shoot was measured metrically 17 days after experimental start.
In Table N2, the weight ratio between DMPSA and VitoVin is 1:5.6.

Test [2] relates to soybean (Glycine max 'Sultana'). The experiment in a line: Greenhouse detection of plant biomass (fresh weight), soybean. The format is in vivo. The following applies: 17 days after start, with AS liquid, DMPSA 1% of NH4-N where present. The method, then: as §1
Detection of ryegrass and soybean biomass (fresh weight) was determined gravitometricallly. Therefore, plants were cut using a hand held lawn cutter (ryegrass) or garden shears (soybean) 1 cm above the soil. Given ryegrass data represent the mean value of respective replicates summed up for 3 cuttings. For experiments using ryegrass, evaluations were conducted 5, 12 and 17 days after start of the experiment. For experiments using soybean, biomass evaluation was conducted 17 days after experimental start.
(§2) In Table N1, the weight ratio between DMPSA and Histick Super is 3.65:1, the weight ratio between DMPSA and Hicoat is 10.43:1.

For test [3], the system named is N2O emissions from soils. Briefly: Greenhouse detection of nitrous oxide losses (N2O emission), soybean pots. In kind it is in vivo, Glycine max 'Sultana'. Particulars: DMPSA 1% of NH4-N where present. Here is the method:
as §1
On application day (DATO), each pot (with/without plants) was set onto a plant saucer designed with an inner compartment for the pot and an outer ring that is filled with water. At time 0, water holding capacity of the soil was set to 60-70% prior to application with/without fertilizer and active ingredient. Subsequently, a gas sampling chamber was placed over the plant saucer such that the rim fit into the ring filled with water to create a gas-tight chamber and 25 cc air from the chamber were drawn into a syringe and immediately emptied in to a Vacutainer (Labco, 12 ml volume). This equals the Time 0 measurement for each pot. The same procedure was performed with all pots in the experiment. After two hour incubation time, again 25 cc air samples were taken from the gas chambers and emptied into Vacutainers as described above. Plants were then returned to their positions in the climate chamber. The procedure was repeated at precisely the same time of day for up to 19 days.
Samples were analyzed in a Shimadzu 2014 GC equipped with an ECD system.
as §2

In test [4] the test system is Fusarium oxysporum, Aspergillus niger, Aspergillus oryzae, and Penicillum thomii. Particulars: J. Antibiotics 49(2), 129-135, 1996; 50(3), 220-228, 1997; cited from earlier work.
For test [5], the system named is Fusarium oxysporum. Particulars: WO2006/016558; EP1 788 074 A1; cited from earlier work.
The test system of test [6] is cultured parsley cells. Particulars: WO2006/016558; EP1 788 074 A1; cited from earlier work.
Test [7] has as its system clinically relevant fungi and gram-positive bacteria such a Staphylococcus aureus. Particulars: variety of clinically relevant fungi and gram-positive bacteria; ChemMedChem 7, 871-882, 2012; cited from earlier work.
In test [8] the test system is Fusarium moniliforme, F. oxysporum, F. roseum, Giberella fujkuroi, Helminthosporium sesamum and Penicillium expansum. Particulars: J. Antibiotics 40(11), 1506-1514, 1987; cited from earlier work.

Bridge positions count the residues as written; N and C are the ends. Square brackets hold non-standard residues; d marks the D form. Peptide text beside a SMILES is read from it. * marks the point of attachment. ξ: configuration not given here. Pentadecanoyl(3ξ-OH,15-Gua) = N=C(N)NCCCCCCCCCCCCC(O)CC(=O)*; d(aThr) = C[C@@H](O)[C@@H](N)C(=O)O; Thr(3ξ) = CC(O)[C@H](N)C(=O)O; ξY = NC(Cc1ccc(O)cc1)C(=O)O

As for “2-(3,4-dimethyl-1H-pyrazol-1-yl)succinic acid (DMPSA1) and/or 2-(4,5-dimethyl-1H-pyrazol-1-yl)succinic acid (DMPSA2)”, the “relative Growth increase [% of control]” value in test [1] was 104 % of control. For the same molecule, in test [2], the “Biomass increase [% of fertilized control]” value was 83 % of fertilized control and the “net Biomass increase” value was -2.47 g. Also, the N2O emission ppb in test [3] (with AS liquid (ammonium sulfate, 219000 g/ha NH4-N)) is on record as 38 ppb. Besides, the “N2O emission ppb net emission” value in test [3] (with AS liquid) worked out at 38 ppb. The “% inhibition (N2O emission)” value in test [3] (with AS liquid, relative to soybean untreated + AS liquid) is on record as 19%.
In the case of `CC(C)[C@@H]1NC(=O)[C@@H](C(C)C)NC(=O)[C@@H](NC(=O)CC(O)CCCCCCCCCCCCN=C(N)N)C(C)OC(=O)[C@@H](C)NC(=O)[C@@H](CCC(N)=O)NC(=O)[C@@H]([C@H](C)O)NC1=O` (stereo in doubt) [fusaricidin B], in test [4], the “inhibition of plant pathogenic fungi” value was “inhibit plant pathogenic fungi”. The “inhibition of growth of Fusarium oxysporum” value in test [5] is reported as “inhibit growth”. Besides, the “induction of resistance reactions in cultured parsley cells” value in test [6] is recorded as “induce resistance reactions”.
As to `CC(C)[C@@H]1NC(=O)[C@@H](C(C)C)NC(=O)[C@@H](NC(=O)CC(O)CCCCCCCCCCCCN=C(N)N)[C@@H](C)OC(=O)[C@@H](C)NC(=O)[C@@H](CC(N)=O)NC(=O)[C@@H]([C@@H](C)O)NC1=O` (stereo partly drawn) [fusaricidin A] ({Pentadecanoyl(3ξ-OH,15-Gua)}-T[dV]V[d(aThr)][dN][dA]; ester 1-C), the MIC value range in test [7] is 0.78 to 3.12 µg/mL. In addition, the “inhibition of plant pathogenic fungi” value in test [4] is listed as “inhibit plant pathogenic fungi”. Moreover, the “inhibition of growth of Fusarium oxysporum” value in test [5] is recorded as “inhibit growth”. The “induction of resistance reactions in cultured parsley cells” value in test [6] is “induce resistance reactions”.
Regarding `CC1OC(=O)[C@@H](C)NC(=O)[C@@H](CC(N)=O)NC(=O)[C@@H]([C@H](C)O)NC(=O)C(Cc2ccc(O)cc2)NC(=O)[C@@H](C(C)C)NC(=O)[C@H]1NC(=O)CC(O)CCCCCCCCCCCCN=C(N)N` (stereo partly drawn) [fusaricidin C] ({Pentadecanoyl(3ξ-OH,15-Gua)}-[Thr(3ξ)][dV][ξY][dT][dN][dA]; ester 1-C), the “inhibition of plant pathogenic fungi” value in test [4] is on record as “inhibit plant pathogenic fungi”.
In the case of `CC1OC(=O)[C@@H](C)NC(=O)[C@@H](CCC(N)=O)NC(=O)[C@@H]([C@H](C)O)NC(=O)C(Cc2ccc(O)cc2)NC(=O)[C@@H](C(C)C)NC(=O)[C@H]1NC(=O)CC(O)CCCCCCCCCCCCN=C(N)N` (stereo partly drawn) [fusaricidin D] ({Pentadecanoyl(3ξ-OH,15-Gua)}-[Thr(3ξ)][dV][ξY][dT][dQ][dA]; ester 1-C), the “inhibition of plant pathogenic fungi” value in test [4] was “inhibit plant pathogenic fungi”.
As for fusaricidin LI-F05, in test [8], the “antifungal activity against various plant pathogenic fungi” value (“antifungal activity” for short) is “certain antifungal activity”.
fusaricidin LI-F07: the “antifungal activity” value in test [8] is listed as “certain antifungal activity”.
On to fusaricidin LI-F08, for which the “antifungal activity” value in test [8] was “certain antifungal activity”.

These data come from patent US20200163342A1, “MIXTURES COMPRISING A BIOPESTICIDE AND A NITRIFICATION INHIBITOR” (BASF SE, priority 2017, published 2020).
